Experiments:
[1] = molecular target: CDK9/Cyclin T1 (Homo sapiens (Human), UniProt P50750); experiment: CDK9 enzyme assay (LANCE ULight TR-FRET kinase assay); assay type: biochemical; settings: 1000 μM ATP, 100 nM ULight MBP, kinase reaction 1 hour
Protocol: CDK9 enzyme activities were measured using LANCE ULight TR-FRET kinase assay reagents (PerkinElmer, Waltham, Mass.). Compounds were diluted in 100% DMSO then diluted with 1:10 in serine/threonine kinase assay buffer containing 20 mM HEPES, 10 mM MgCl2, […], and 0.0075% Triton X-100. Equal volume of the compound dilutions was added to a final reaction mixture containing LANCE detection buffer (PerkinElmer CR97-100), 100 nM ULight MBP (PerkinElmer TRF0109M), 1000 μM ATP, and CDK9/Cyclin T1 (Carna Biosciences 04-110). The kinase reaction was carried out for 1 hour before addition of stopping buffer to a final of 20 mM EDTA and 0.5 nM of LANCE Ultra Europium anti-phospho-MBP antibody (PerkinElmer TRF0201M) in LANCE detection buffer. The reaction was incubated for 1 hour and the signal was read in Envision in TR-FRET mode (excitation at 320 nm and emission at 615/665 nm).

[2] = test system: H929 cells; experiment: Cell viability assay (Cell TiterGlo); assay type: cell-based; settings: Homo sapiens, NCI-H929, 24 hours at 37° C., Cell TiterGlo luminescence
Protocol: The cell viability assay was performed using H929 cells. Cells were seeded in 96-well plates at 10,000 cells/well and, after overnight incubation, treated with compounds in a dose response of 3-fold dilutions from 10 μM to 0.005 μM ([…], 0.1% final DMSO concentration). After 24 hours at 37° C., cell viability was measured using Cell TiterGlo reagent (Promega) with a luminescence reader.

CDK9/Cyclin T1, sequence (P50750 whole entry): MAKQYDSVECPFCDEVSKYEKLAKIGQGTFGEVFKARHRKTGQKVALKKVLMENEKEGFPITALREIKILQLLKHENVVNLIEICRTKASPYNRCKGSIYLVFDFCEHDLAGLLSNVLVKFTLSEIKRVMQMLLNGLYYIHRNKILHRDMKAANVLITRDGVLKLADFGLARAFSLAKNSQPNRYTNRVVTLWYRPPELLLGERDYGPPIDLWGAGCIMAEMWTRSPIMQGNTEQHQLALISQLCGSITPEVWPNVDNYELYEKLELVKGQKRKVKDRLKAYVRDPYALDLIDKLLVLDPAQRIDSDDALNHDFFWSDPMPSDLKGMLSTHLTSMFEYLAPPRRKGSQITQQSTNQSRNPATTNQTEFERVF
CDK9/Cyclin T1, sequence (O60563 whole entry partner): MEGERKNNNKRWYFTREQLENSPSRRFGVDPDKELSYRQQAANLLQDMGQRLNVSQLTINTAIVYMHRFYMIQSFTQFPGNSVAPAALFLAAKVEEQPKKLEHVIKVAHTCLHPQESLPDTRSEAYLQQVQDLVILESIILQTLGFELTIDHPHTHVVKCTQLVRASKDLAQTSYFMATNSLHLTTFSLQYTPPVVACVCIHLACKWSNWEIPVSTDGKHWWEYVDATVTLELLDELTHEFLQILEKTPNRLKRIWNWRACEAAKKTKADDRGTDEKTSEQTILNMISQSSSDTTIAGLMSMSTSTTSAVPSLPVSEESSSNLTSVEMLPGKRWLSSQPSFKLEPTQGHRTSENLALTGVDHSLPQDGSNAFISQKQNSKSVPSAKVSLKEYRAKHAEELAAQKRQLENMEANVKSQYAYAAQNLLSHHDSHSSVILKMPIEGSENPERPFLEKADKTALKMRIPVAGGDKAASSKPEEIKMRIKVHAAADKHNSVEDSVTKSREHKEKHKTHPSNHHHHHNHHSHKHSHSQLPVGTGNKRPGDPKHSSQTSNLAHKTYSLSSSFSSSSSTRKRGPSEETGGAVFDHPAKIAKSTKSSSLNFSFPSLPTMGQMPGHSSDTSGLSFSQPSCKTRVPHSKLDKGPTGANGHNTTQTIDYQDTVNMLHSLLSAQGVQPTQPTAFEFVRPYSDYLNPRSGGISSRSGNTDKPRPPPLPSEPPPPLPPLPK

Row | Compound | IC50 [1] | IC50 [2]
1 | CNC(=O)N1C2C=C(c3[nH]c4nccc5c4c3CN(C)c3ccc(F)cc3-5)CC1CCC2 (stereo not shown) [Example 100, 3-(10-fluoro-7-methyl-6,7-dihydro-4H-3,4,7-triazadibenzo[cd,f]azulen-5-yl)-N-methyl-9-azabicyclo[3.3.1]non-2-ene-9-carboxamide] | 83 nM | 1200 nM
2 | CN1Cc2c(C3=CCN(C4CC(CC(=O)O)C4)CC3)[nH]c3nccc(c23)-c2cc(F)ccc21 (stereo not shown) [Example 140, {3-[4-(10-fluoro-7-methyl-6,7-dihydro-4H-3,4,7-triazadibenzo[cd,f]azulen-5-yl)-3,6-dihydropyridin-1(2H)-yl]cyclobutyl}acetic acid] | 42 nM | 58 nM
3 | CN1Cc2c(C3=CCN([C@H]4CC[C@@H](CC(=O)O)CC4)CC3)[nH]c3nccc(c23)-c2ccccc21 [Example 170, {cis-4-[4-(7-methyl-6,7-dihydro-4H-3,4,7-triazadibenzo[cd,f]azulen-5-yl)-3,6-dihydropyridin-1(2H)-yl]cyclohexyl}acetic acid] | 110 nM | 
4 | CN1Cc2c(C3=CCN(C(=O)OC(C)(C)C)CC3)[nH]c3nccc(c23)-c2cc(F)ccc21 [Example 2, tert-butyl 4-(10-fluoro-7-methyl-6,7-dihydro-4H-3,4,7-triazadibenzo[cd,f]azulen-5-yl)-3,6-dihydropyridine-1(2H)-carboxylate] |  | 940 nM
5 | CCC1c2c(C3=CCN(C(=O)OC(C)(C)C)CC3)[nH]c3nccc(c23)-c2cc(F)ccc2N1C (stereo not shown) [Example 8, tert-butyl 4-(6-ethyl-10-fluoro-7-methyl-6,7-dihydro-4H-3,4,7-triazadibenzo[cd,f]azulen-5-yl)-3,6-dihydropyridine-1(2H)-carboxylate] | 1400 nM | 
6 | CN1Cc2c(C3=CCN([C@H]4CC[C@H](CC(=O)O)CC4)CC3)[nH]c3nccc(c23)-c2ccccc21 [Example 169, {trans-4-[4-(7-methyl-6,7-dihydro-4H-3,4,7-triazadibenzo[cd,f]azulen-5-yl)-3,6-dihydropyridin-1(2H)-yl]cyclohexyl}acetic acid] | 90 nM | 
7 | CN(CCO)C(=O)CN1CC=C(c2[nH]c3ncc(F)c4c3c2CN(C)c2ccc(F)cc2-4)CC1 [Example 71, 2-[4-(1,10-difluoro-7-methyl-6,7-dihydro-4H-3,4,7-triazadibenzo[cd,f]azulen-5-yl)-3,6-dihydropyridin-1(2H)-yl]-N-(2-hydroxyethyl)-N-methylacetamide] |  | 21 nM
8 | CN1Cc2c(C3=CCN(C4CCC(C(=O)O)CC4)CC3)[nH]c3nccc(c23)-c2ccccc21 (stereo not shown) [Example 172, 4-[4-(7-methyl-6,7-dihydro-4H-3,4,7-triazadibenzo[cd,f]azulen-5-yl)-3,6-dihydropyridin-1(2H)-yl]cyclohexanecarboxylic acid] | 120 nM | 
9 | CN1Cc2c(C3=CCN([C@H]4CC[C@H](C(=O)O)CC4)CC3)[nH]c3nccc(c23)-c2ccccc21 [Example 171, trans-4-[4-(7-methyl-6,7-dihydro-4H-3,4,7-triazadibenzo[cd,f]azulen-5-yl)-3,6-dihydropyridin-1(2H)-yl]cyclohexanecarboxylic acid] | 150 nM | 

Second part, the compound after the results:

Row | IC50 [1] | IC50 [2] | Compound
10 | 52 nM | 20 nM | CN1Cc2c(C3=CCN(CC(=O)N4CC[C@H](O)C4)CC3)[nH]c3ncc(F)c(c23)-c2cc(F)ccc21 [Example 73, 2-[4-(1,10-difluoro-7-methyl-6,7-dihydro-4H-3,4,7-triazadibenzo[cd,f]azulen-5-yl)-3,6-dihydropyridin-1(2H)-yl]-1-[(3S)-3-hydroxypyrrolidin-1-yl]ethanone]
11 | 86 nM | 5 nM | CN1Cc2c(C3=CCN(CC(=O)N4CCC[C@H]4CO)CC3)[nH]c3ncc(F)c(c23)-c2cc(F)ccc21 [Example 70, 2-[4-(1,10-difluoro-7-methyl-6,7-dihydro-4H-3,4,7-triazadibenzo[cd,f]azulen-5-yl)-3,6-dihydropyridin-1(2H)-yl]-1-[(2S)-2-(hydroxymethyl)pyrrolidin-1-yl]ethanone]
12 | 38 nM | 90 nM | CN(CC(O)CO)C(=O)CN1CC=C(c2[nH]c3nccc4c3c2CN(C)c2ccc(F)cc2-4)CC1 (stereo not shown) [Example 63, N-(2,3-dihydroxypropyl)-2-[4-(10-fluoro-7-methyl-6,7-dihydro-4H-3,4,7-triazadibenzo[cd,f]azulen-5-yl)-3,6-dihydropyridin-1(2H)-yl]-N-methylacetamide]
13 | 130 nM | 160 nM | CN1Cc2c(C3=CCN(C4CCC(C(C)(C)C(=O)O)CC4)CC3)[nH]c3nccc(c23)-c2cc(F)ccc21 (stereo not shown) [Example 185, 2-{4-[4-(10-fluoro-7-methyl-6,7-dihydro-4H-3,4,7-triazadibenzo[cd,f]azulen-5-yl)-3,6-dihydropyridin-1(2H)-yl]cyclohexyl}-2-methylpropanoic acid]
14 | 81 nM | 320 nM | CN1Cc2c(C3=CCC(N[C@@H](Cc4ccc(O)cc4)C(=O)O)CC3)[nH]c3nccc(c23)-c2cc(F)ccc21 (stereo partly drawn) [Example 40, N-[4-(10-fluoro-7-methyl-6,7-dihydro-4H-3,4,7-triazadibenzo[cd,f]azulen-5-yl)cyclohex-3-en-1-yl]-L-tyrosine]
15 |  | 130 nM | CN1Cc2c(C3=CCN(S(C)(=O)=O)CC3)[nH]c3ncc(F)c(c23)-c2cc(F)ccc21 [Example 68, 1,10-difluoro-7-methyl-5-[1-(methylsulfonyl)-1,2,3,6-tetrahydropyridin-4-yl]-6,7-dihydro-4H-3,4,7-triazadibenzo[cd,f]azulene]
16 | 240 nM |  | CN1Cc2c(C3=CCCN(CC(=O)O)C3)[nH]c3nccc(c23)-c2cc(F)ccc21 [Example 112, [5-(10-fluoro-7-methyl-6,7-dihydro-4H-3,4,7-triazadibenzo[cd,f]azulen-5-yl)-3,6-dihydropyridin-1(2H)-yl]acetic acid]
17 | 58 nM |  | COC(=O)C[C@H]1CC[C@H](N2CC=C(c3[nH]c4nccc5c4c3CN(C)c3cc(F)c(F)cc3-5)CC2)CC1 [Example 133, methyl{trans-4-[4-(9,10-difluoro-7-methyl-6,7-dihydro-4H-3,4,7-triazadibenzo[cd,f]azulen-5-yl)-3,6-dihydropyridin-1(2H)-yl]cyclohexyl}acetate]
18 | 84 nM |  | CC(C(=O)O)=C1CCC(N2CC=C(c3[nH]c4nccc5c4c3CN(C)c3ccc(F)cc3-5)CC2)CC1 (stereo not shown) [Example 176, 2-{4-[4-(10-fluoro-7-methyl-6,7-dihydro-4H-3,4,7-triazadibenzo[cd,f]azulen-5-yl)-3,6-dihydropyridin-1(2H)-yl]cyclohexylidene}propanoic acid]
19 | 150 nM |  | CN1Cc2c(C3CCN(CC(=O)O)CC3)[nH]c3nccc(c23)-c2cc(F)ccc21 [Example 23, [4-(10-fluoro-7-methyl-6,7-dihydro-4H-3,4,7-triazadibenzo[cd,f]azulen-5-yl)piperidin-1-yl]acetic acid]
20 | 2800 nM |  | CN1Cc2c(C3CCN(CC(=O)OC(C)(C)C)CC3)[nH]c3nccc(c23)-c2cc(F)ccc21 [Example 22, tert-butyl[4-(10-fluoro-7-methyl-6,7-dihydro-4H-3,4,7-triazadibenzo[cd,f]azulen-5-yl)piperidin-1-yl]acetate]
21 |  | 93 nM | CNC(=O)N1CC=C(c2[nH]c3nccc4c3c2CN(C)c2ccc(F)cc2-4)CC1 [Example 13, 4-(10-fluoro-7-methyl-6,7-dihydro-4H-3,4,7-triazadibenzo[cd,f]azulen-5-yl)-N-methyl-3,6-dihydropyridine-1(2H)-carboxamide]
